In assay [1] the test system is PTZ-induced seizures in mice. Put plainly: Mouse PTZ-induced seizure assay (PTZ tail vein infusion). In kind it is in vivo.
Experimental: Mice were randomly divided into groups of five animals (vehicle (where vehicle was polyethylene glycol 200 (PEG200):water 1:1) and sample). The animals were pre-warmed under an infrared lamp for 10 minutes to dilate the tail veins. They were then placed in a restrainer and the lateral tail vein was catheterized with 1-cm long, 29-gauge needle. The needle was secured to the tail with surgical tape after confirming a correct placement. The needle was attached to a 0.7-m long polyethylene tubing connected to two 2.5-ml glass syringes containing: a) sample (control vehicle or test compounds) and b) PTZ (7.5 mg/ml ddH2O). These syringes were mounted on an infusion pump (ALADOIN-1000 11 VDC, 0.75 Å, World Precision Instruments). Thus, 100 μL of control vehicle (PEG 200: ddH2O 1:1) or test compounds (turmeric oil and ar-turmerone) were IV infused at the rate of 50 μl/min for 2 minutes. Ten minutes later, mice were released from the restrainer and placed in a transparent plastic cage for observation.
PTZ was constantly infused at the rate of 150 μl/min. Seizure manifestation stages in mice were scored according to the time between the start of PTZ infusion and the following behavioral events: ear, tail and myoclonic twitch, forelimb clonus, falling, tonic hindlimb extension and death (28). Behavior was observed up to 5 minutes of PTZ infusion. In case of any surviving mice, they were sacrificed.
PTZ doses were calculated according to the formula: PTZ dose [mg/kg]=(PTZ concentration [mg/ml]×infusion rate [ml/s]×infusion duration [s]×1000)/mouse weight [g]). All work solutions contained heparine (20 μl/ml).
All statistical analyses were performed using GraphPad Prism 5 software (GraphPad Software, Inc.). Values were presented as means±standard deviation (SD). […] For mouse experiments, significant differences between estimated time intervals prior to above-mentioned seizure stages were calculated using the unpaired Student's t-test.
In assay [2] the test system is 6 Hz corneal stimulation-induced seizures in mice. The assay is described as follows: 6 Hz psychomotor seizure model of partial epilepsy. In kind it is in vivo, mouse. On the procedure: For assessing the anti-convulsant activity of ar-Tumerone, the 6 Hz psychomotor seizure model of partial epilepsy (Barton M. E. et al., 2001) was used, thereby applying the following stimulation parameters: 6 Hz, 0.2 ms rectangular pulse width, 3 s duration.
Every mouse (male NMRI+/−30 g) was administered the compound (ar-tumerone 50 mg/kg, 20 mg/kg, 1 mg/kg and 100 μg/kg) or vehicle (PEG 200:DMSO 1:1) via i.p. injection. After 30 minutes of incubation, seizures were induced via corneal stimulation using the Ugo-Basil device. Prior to the placement of corneal electrodes, a drop of 0.5% xylocaine was applied to the eyes of the animal. Animals were restrained manually and released immediately in a transparent plastic cage following the stimulation. Then, the animal was observed. The seizure was characterized by stun, forelimb clonus, twitching of vibrissae, straub-tail for at least 45 s. Protection was defined as the absence of a seizure. A minimum of six animals per dose was used. […] Negative control (only vehicle) and positive control (valproic acid 300 mg/kg) were included as well. As expected, 6 out of 6 mice treated with only vehicle were not protected and 6 out of 6 mice treated with valproic acid were protected.

The subject of assay [3] is PTZ-induced seizures in zebrafish larvae. The assay is described as follows: Zebrafish PTZ seizure assay (videotracking of larval locomotor activity). In kind it is in vivo. As for the experimental part: Zebrafish larvae from 7-dpf were tracked using the ViewPoint VideoTrack System for Zebrafish™ (Version 2.3.1.0, ViewPoint, France). The system consists of an infrared light source, a high-resolution digital videocamera to capture larval movements within a defined time period (30 minutes in our experimental set-up) and the software to analyze larval locomotor activity (FIG. 1).
The highest concentration tested corresponds to the previously determined MTC. Zebrafish larvae were placed in a 96-well plate (tissue culture plate, flat bottom, FALCON®, USA); one larva per well. Each row of the plate (12 wells) comprised different treatment groups. Two adjacent rows contain the same compound but received two different treatments: a) first row, embryo medium (DMSO 1%), and b) second row, PTZ 20 mM. The first two rows of the plate (vehicle control group, where vehicle was embryo medium) contained a volume of 100 μl of embryo medium (1% DMSO) per well. The following three test groups (two rows each) contained 100 μl of different concentrations of test compound in embryo medium. The larvae thus treated were incubated at room temperature in dark and quiet conditions for 1 hour. Embryo medium (100 μl) was added to the first rows of each one of the four groups. Likewise, 100 μl of PTZ 40 mM were added to the second rows of each treatment group (final concentration of PTZ: 20 mM). Thus, the movement pattern of the exposed zebrafish larvae was video-tracked and assessed in presence of embryo medium (1% DMSO) and PTZ 20 mM. Videotracking of larval movements was started 5 minutes after addition of embryo medium or PTZ to the wells and was recorded for 30 minutes. A total of 8 wells in each plate were left without larvae (medium only) as a negative control, so that each experimental parameter consisted of an average of 10 to 12 larvae. The tracker software measured three periods of 10 minutes of larvae movement. Results were registered as the average value of the total time of larvae movement during 30 minutes. The figures shown are representative of a series of two similar experiments.
All statistical analyses were performed using GraphPad Prism 5 software (GraphPad Software, Inc.). Values were presented as means±standard deviation (SD). The locomotor activity of zebrafish larvae was analyzed using one-way ANOVA followed by Dunnett's multiple comparison test. Statistically significant differences (p<0.05) between a treated group and the equivalent control groups (vehicle or PTZ) were considered indicative of decrease or increase in locomotor activity of zebrafish larvae. For mouse experiments, significant differences between estimated time intervals prior to above-mentioned seizure stages were calculated using the unpaired Student's t-test.

The mark [4] stands for this setting: 10 μg/mL, 1 hour pre-incubation, PTZ 20 mM, 30 min tracking.
Setting [5] is: 46 μM, PTZ 20 mM, 30 min tracking.

On to `CC(C)=CC(=O)C[C@H](C)c1ccc(C)cc1` [ar-turmerone], for which the “required dose of PTZ to trigger all assessed events” value in assay [1] (50 mg/kg infused, tonic hindlimb extension p<0.05, other events and death p<0.01) is given as “significant resistance to the generation of seizures”. Besides, the “PTZ dose for generating seizure behaviors” value in assay [1] (200 mg/kg, ear, tail and myoclonic twitch, tonic hind limb extension and death (p<0.05)) is “significant PTZ dose increase”. For the same compound, the “mice protected from seizures” value in assay [2] (100 μg/kg i.p., 30 minutes before stimulation, n=6) is listed as “Six out of six”; in assay [2] (1 mg/kg i.p., 30 minutes before stimulation, n=6) it was “Six out of six”; in assay [2] (20 mg/kg i.p., 30 minutes before stimulation, n=6) it was “Six out of six”; in assay [2] (50 mg/kg i.p., 30 minutes before stimulation, n=6) it was “Six out of six”. The entries for the “anticonvulsant activity (decrease of PTZ-induced seizure movements)” value in assay [3] (setting [4]) and in assay [3] (setting [5]) were “Significant decrease of the seizures triggered by PTZ” and “anticonvulsant activity”, respectively.
As to `COc1cc(/C=C/C(=O)CC(=O)/C=C/c2ccc(O)c(OC)c2)ccc1O` [curcumin, reference compound], the “anticonvulsant activity (decrease of PTZ-induced seizure movements)” value in assay [3] (concentration not given) was “potent activity in inhibiting PTZ-induced seizures”.
In the case of `CN1C(=O)CN=C(c2ccccc2)c2cc(Cl)ccc21` [diazepam, reference compound], the “anticonvulsant activity (decrease of PTZ-induced seizure movements)” value in assay [3] (1.42 μg/ml, PTZ 20 mM, 30 min tracking) is reported as “decreased PTZ-induced movements”; in assay [3] (14.23 μg/ml, PTZ 20 mM, 30 min tracking), “decreased PTZ-induced movements”.
In the case of `O=C1NC(=O)C(c2ccccc2)(c2ccccc2)N1` [phenytoin, reference compound], the “anticonvulsant activity (decrease of PTZ-induced seizure movements)” value was “significant activity” in assay [3] (75 μg/ml, PTZ 20 mM, 30 min tracking) and “significant activity” in assay [3] (252.26 μg/ml, PTZ 20 mM, 30 min tracking).
As to `CCCC(CCC)C(=O)[O-].[Na+]` [sodium valproate, reference compound], in assay [1] (50 mg/kg, tonic hindlimb extension p<0.01, death p<0.05), the “delay of seizure behaviors (PTZ tail infusion)” value is “capable of delaying tonic hindlimb extension”. For the same compound, the “anticonvulsant activity (decrease of PTZ-induced seizure movements)” value in assay [3] (concentration not given) is “able to control seizures generation”.
With `CCCC(CCC)C(=O)O` [valproic acid, reference compound], the “mice protected from seizures” value in assay [2] (300 mg/kg, positive control) is listed as 6 out of 6.
With α-atlantone, the “anticonvulsant activity (decrease of PTZ-induced seizure movements)” value in assay [3] (5 μg/mL, 1 hour pre-incubation, PTZ 20 mM, 30 min tracking) was “Significant decrease of the seizures triggered by PTZ”; in assay [3] (setting [4]) it was “Significant decrease of the seizures triggered by PTZ”; in assay [3] (23 μM, PTZ 20 mM, 30 min tracking), “anticonvulsant activity”; in assay [3] (setting [5]), “anticonvulsant activity”.

The values are drawn from US9782361B2 (Katholieke Universiteit Leuven, priority 2011, dated 2017).
